Values quoted from earlier work as cited in US8404715B2, “Methods and compositions using racemic, (R)-, and (S)-fexofenadine in combination with leukotriene inhibitors” (Sunovion Pharmaceuticals Inc., priority 1998, dated 2013).
Where two headings read alike, the source gives them in different places.

Tests used:
[1] = system: leukotriene (LTH4, LTC4, LTD4, and LTE4) formation; details: in vitro
LTB4 formation = details: ex vivo, several species
[2] = system: leukotriene-dependent smooth muscle contractions; details: in vitro, guinea pig airways
[3] = system: leukotriene-dependent smooth muscle contractions; details: in vitro, human airways
[4] = 373 patients
[5] = in some patients
[6] = in vivo
LTD4 (leukotriene D4) = details: guinea pigs
[7] = system: nasal response to allergen challenge
[8] = system: contractile activity of three leukotrienes; details: laboratory animals
[9] = system: contractile activity of three leukotrienes; details: humans
LTD4 [10] = details: in vivo
LTD4 [11] = details: in vivo; remark: listed apart in the source
[12] = in some patients; remark: listed apart in the source

CC(c1cc2ccccc2s1)N(O)C(N)=O (racemic) [zileuton, (±)-1-(1-Benso[b]thien-2-ylethyl)-1-hydroxyurea]
leukotriene (LTH4, LTC4, LTD4, and LTE4) formation [1]: inhibit | LTB4 formation (LTB4 formation): inhibitor | leukotriene-dependent smooth muscle contractions [2]: inhibits | leukotriene-dependent smooth muscle contractions [3]: inhibits | efficacy ([4]; 400 mg): failed to do so | efficacy ([4]; 600 mg four times daily): required to provide efficacy | adverse effects reported [5]: headache, pain, asthenia, dyspepsia, nausea, and myalgia

CC(C)(C)c1ccc(C(O)CCCN2CCC(C(O)(c3ccccc3)c3ccccc3)CC2)cc1 (stereo not shown) [Terfenadine]
absorption [6]: well absorbed | metabolism [6]: extensively metabolized | increase in airway resistance caused by LTD4 (LTD4 (leukotriene D4)): suppressed | early nasal response to allergen challenge ([7]; in vivo): partially inhibits | influx of eosinophils into nasal secretions ([7]; in vivo): without affecting | subsequent reactivity to a challenge with methacholine ([7]; in vivo): partially inhibits | levels of tryptase, prostaglandin D2 and leukotriene C4 ([7]; relative to the placebo, differences did not achieve statistical significance): tended to decrease

COc1cc(C(=O)NS(=O)(=O)c2ccccc2C)ccc1Cc1cn(C)c2ccc(NC(=O)OC3CCCC3)cc12 [zafirlukast, 4-(5-cyclopentyloxy-carbonylamino-1-methyl-indol-8-ylmethyl)-3-methoxy-N-o-tolylsulfonylbenzamide]
contractile activity of three leukotrienes in conducting airway smooth muscle [8]: antagonized | contractile activity of three leukotrienes in conducting airway smooth muscle [9]: antagonized | intradermal LTD4-induced increases in cutaneous vascular permeability (LTD4 [10]): prevented | inhaled LTD4-induced influx of eosinophils into animal lungs (LTD4 [11]): inhibited | adverse effects reported [12]: headache, infection, nausea, diarrhea, pain, asthenia, abdominal pain, dizziness, myalgia, fever, vomiting, SGPT elevation, and dyspepsia
